Entries after “also recorded” stand apart in the source; their conditions may differ.
Key:
Format in all cases: in vivo, rat
GALT-null rats [1] = experiment: Qualitative visual scoring of cataracts (0-3 scale) in GALT null rats
Text: Rats, with impaired GALT activity due to genetic modification (GALT null), were used as a model of galactosemia. This rat model mirrors human classic galactosemia in some important ways. The rats develop physical characteristics including cataracts follow exposure to galactose, growth abnormalities, and neurological/cognitive abnormalities, which mirror abnormalities in human patients and can be quantified. The rats also have biochemical characteristics that mirror human disease including elevated levels of galactose and galactose metabolites, including galactitol and Gal1), in blood and tissues. Rats were generated from heterozygote crosses (heterozygous M3 GALT null strain representing classic galactosemia). […] Aldose reductase inhibitor (Compound A or Compound B), suspended in Gerber formula, was administered orally at about 12-hour intervals (BID) at 1 mg inhibitor/gram pup weight (=1000 mg/kg) for each dose. Before use, drug was stored at −20° C. in a bottle or tubes wrapped in aluminum foil. Just before each feeding an aliquot of drug was re-suspended in formula, mixed well, and pipetted into individual tubes to be fed to the pups (volume calculated per pup weight measured that morning). All placebo and drug tubes of formula were warmed to 37° C. immediately before feeding. Placebo and drug were fed to pups by hand using a syringe and tubing. Pups receiving drug also were fed a small additional volume of Gerber formula that had been used to wash the tube and syringe immediately after the drug feeding. To motivate eating, pups were removed from their mother (to prevent nursing) and maintained in nests in a humidified incubator for about 2 hours at 35-37° C. prior to each feeding. […] In the first part of the study, cataracts were scored visually by a blinded rater on a 3 point scale, with zero being no cataracts present (absent), 1 being mild, 2 being moderate and 3 being severe cataracts present. In the second part of the study, eyes were dissected after euthanization, photographed via digital camera, and cataracts were quantified via software

GALT-null rats [2] = experiment: Metabolite levels (galactitol, galactose, Gal1P) by HPLC in liver, brain and plasma of GALT null rats
Text: Rats, with impaired GALT activity due to genetic modification (GALT null), were used as a model of galactosemia. This rat model mirrors human classic galactosemia in some important ways. The rats develop physical characteristics including cataracts follow exposure to galactose, growth abnormalities, and neurological/cognitive abnormalities, which mirror abnormalities in human patients and can be quantified. The rats also have biochemical characteristics that mirror human disease including elevated levels of galactose and galactose metabolites, including galactitol and Gal1), in blood and tissues. Rats were generated from heterozygote crosses (heterozygous M3 GALT null strain representing classic galactosemia). […] Aldose reductase inhibitor (Compound A or Compound B), suspended in Gerber formula, was administered orally at about 12-hour intervals (BID) at 1 mg inhibitor/gram pup weight (=1000 mg/kg) for each dose. Before use, drug was stored at −20° C. in a bottle or tubes wrapped in aluminum foil. Just before each feeding an aliquot of drug was re-suspended in formula, mixed well, and pipetted into individual tubes to be fed to the pups (volume calculated per pup weight measured that morning). All placebo and drug tubes of formula were warmed to 37° C. immediately before feeding. Placebo and drug were fed to pups by hand using a syringe and tubing. Pups receiving drug also were fed a small additional volume of Gerber formula that had been used to wash the tube and syringe immediately after the drug feeding. To motivate eating, pups were removed from their mother (to prevent nursing) and maintained in nests in a humidified incubator for about 2 hours at 35-37° C. prior to each feeding. Separate syringes were used for placebo and drug. Pups were wrapped in fleece during feeding, which lasted about 2-5 minutes each. Lysates for metabolite analysis were prepared as follows: 50-100 mg pieces of previously frozen liver or brain were homogenized by grinding for 30 seconds using a Teflon micropestle and handheld micropestle motor (Kimble Chase Life Science and Research Products LLC) in 125 μl ice-cold HPLC-grade water. Metabolites were separated and quantified by HPLC (See, e.g., Daenzer, et al. Dis. Model Mech. 2016, 9(11):1375-1382)). Galactitol, inositol, and glucose were quantified using the same HPLC conditions described to quantify galactose by (Daenzer, 2016). Metabolite levels were normalized to the total area of peaks detected by the relevant column and elution run for that sample, minus the peaks that most distinguished homozygous M3/M3 samples from controls. Specifically, metabolites separated on the MA1 column (galactitol, inositol, galactose and glucose) were normalized to total peak area minus galactose and galactitol, and metabolites separated on the PA10 column (galactose-1P) were normalized to total peak area minus galactose and galactose-1P.

GALT-null rats [3] = experiment: Digital photographic quantification of cataracts in GALT null rats
Text: Rats, with impaired GALT activity due to genetic modification (GALT null), were used as a model of galactosemia. This rat model mirrors human classic galactosemia in some important ways. The rats develop physical characteristics including cataracts follow exposure to galactose, growth abnormalities, and neurological/cognitive abnormalities, which mirror abnormalities in human patients and can be quantified. The rats also have biochemical characteristics that mirror human disease including elevated levels of galactose and galactose metabolites, including galactitol and Gal1), in blood and tissues. Rats were generated from heterozygote crosses (heterozygous M3 GALT null strain representing classic galactosemia). […] Just before each feeding an aliquot of drug was re-suspended in formula, mixed well, and pipetted into individual tubes to be fed to the pups (volume calculated per pup weight measured that morning). […] In the first part of the study, cataracts were scored visually by a blinded rater on a 3 point scale, with zero being no cataracts present (absent), 1 being mild, 2 being moderate and 3 being severe cataracts present. In the second part of the study, eyes were dissected after euthanization, photographed via digital camera, and cataracts were quantified via software

SMILES | qualitative assessment of cataracts (0-3 scale) (GALT-null rats [1]; day 10 of life, FIG. 2C) | qualitative assessment of cataracts (0-3 scale) (GALT-null rats [1]; day 22 of life, placebo average severity 1.5, FIG. 2D) | galactitol levels in liver, brain and plasma (GALT-null rats [2]; day 10 of life, FIG. 3A) | galactose levels (GALT-null rats [2]; day 10 of life, FIG. 3B) | Gal1P levels (GALT-null rats [2]; day 10 of life, FIG. 3C) | digital quantitative analysis of cataracts (score) (GALT-null rats [3]; GALT null rats, day 22 of life, FIG. 2B) | qualitative assessment of cataracts (scale of 0-3) (GALT-null rats [1]; day nine of life, versus placebo, FIG. 2A) | reduction of brain galactitol levels compared to placebo (GALT-null rats [2]; day 9) [%] | reduction of liver galactitol levels compared to placebo (GALT-null rats [2]; day 9) [%] | reduction of brain galactitol levels compared to placebo (GALT-null rats [2]; day 15-18) [%] | reduction of liver galactitol levels compared to placebo (GALT-null rats [2]; day 15-18) [%] | cataracts (qualitative initial study and digitally quantified follow-on study) (GALT-null rats [3]; GALT null rats, 1,000 mg/kg BID or 250 mg/kg BID in follow-on study)
O=C(O)Cc1nn(Cc2cc3cc(C(F)(F)F)ccc3s2)c(=O)c2cscc12 [Compound B] | had cataracts | did not have cataracts; also recorded: cataracts were not present | normal or near normal levels | did not further increase | did not further increase | the same score as wild type rats |  |  |  |  |  | 
O=C(O)Cc1nn(Cc2nc3cc(C(F)(F)F)ccc3s2)c(=O)c2nccnc12 [Compound A] |  |  |  |  |  |  | no cataracts | 40 | 87 | 57 | 57 | reduced cataracts

From patent US11590131B2, “Compositions and methods for treating galactosemia” (Applied Therapeutics, Inc., priority 2017, dated 2023)
